According to US20230364057A1, “BACTERIAL DNA GYRASE INHIBITORS AND METHODS OF USE THEREOF” (THE FLORIDA INTERNATIONAL UNIVERSITY BOARD OF TRUSTEES, priority 2022, published 2023):
Values after ≈ are worked out from the molar mass of the structure shown. “Also recorded” adds a separate entry of the source. Like-named read-outs stand apart in the source and are kept apart here.

Experiments:
E. coli DNA gyrase [1] = target: T1, E. coli DNA gyrase (Escherichia coli (strain K12), UniProt P0AES4+P0AES6); assay: DNA gyrase mediated DNA cleavage assay; assay type: biochemical; conditions: pBR322
Description: 250 ng of supercoiled pBR322 plasmid were incubated with 50 nM of E. coli DNA gyrase in reactions containing 35 mM Tris-HCl, 24 mM KCl, 4 mM MgCl2, 2 mM DTT, 0.1 mg/mL BSA, 6.5% glycerol, and 1.75 mM ATP, in presence of 200 µM of compounds, at 37° C. for 15 min. Then, 0.2% (w/v) of SDS and 0.1 mg/mL proteinase K were added, and samples were incubated at 37° C. for 1 h. […] Samples were examined by electrophoresis in 1% w/v agarose gel containing 0.5 µg/mL ethidium bromide and photographed under UV light.

[2] = target: human DNA topoisomerase IIα (Homo sapiens (Human), UniProt P11388); assay: Agarose gel-based inhibition assay against human DNA topoisomerase IIα; assay type: biochemical; conditions: for inhibition of human DNA topoisomerase IIα: gallates at 100 µM
human DNA topoisomerase IIα, sequence (P11388 whole entry): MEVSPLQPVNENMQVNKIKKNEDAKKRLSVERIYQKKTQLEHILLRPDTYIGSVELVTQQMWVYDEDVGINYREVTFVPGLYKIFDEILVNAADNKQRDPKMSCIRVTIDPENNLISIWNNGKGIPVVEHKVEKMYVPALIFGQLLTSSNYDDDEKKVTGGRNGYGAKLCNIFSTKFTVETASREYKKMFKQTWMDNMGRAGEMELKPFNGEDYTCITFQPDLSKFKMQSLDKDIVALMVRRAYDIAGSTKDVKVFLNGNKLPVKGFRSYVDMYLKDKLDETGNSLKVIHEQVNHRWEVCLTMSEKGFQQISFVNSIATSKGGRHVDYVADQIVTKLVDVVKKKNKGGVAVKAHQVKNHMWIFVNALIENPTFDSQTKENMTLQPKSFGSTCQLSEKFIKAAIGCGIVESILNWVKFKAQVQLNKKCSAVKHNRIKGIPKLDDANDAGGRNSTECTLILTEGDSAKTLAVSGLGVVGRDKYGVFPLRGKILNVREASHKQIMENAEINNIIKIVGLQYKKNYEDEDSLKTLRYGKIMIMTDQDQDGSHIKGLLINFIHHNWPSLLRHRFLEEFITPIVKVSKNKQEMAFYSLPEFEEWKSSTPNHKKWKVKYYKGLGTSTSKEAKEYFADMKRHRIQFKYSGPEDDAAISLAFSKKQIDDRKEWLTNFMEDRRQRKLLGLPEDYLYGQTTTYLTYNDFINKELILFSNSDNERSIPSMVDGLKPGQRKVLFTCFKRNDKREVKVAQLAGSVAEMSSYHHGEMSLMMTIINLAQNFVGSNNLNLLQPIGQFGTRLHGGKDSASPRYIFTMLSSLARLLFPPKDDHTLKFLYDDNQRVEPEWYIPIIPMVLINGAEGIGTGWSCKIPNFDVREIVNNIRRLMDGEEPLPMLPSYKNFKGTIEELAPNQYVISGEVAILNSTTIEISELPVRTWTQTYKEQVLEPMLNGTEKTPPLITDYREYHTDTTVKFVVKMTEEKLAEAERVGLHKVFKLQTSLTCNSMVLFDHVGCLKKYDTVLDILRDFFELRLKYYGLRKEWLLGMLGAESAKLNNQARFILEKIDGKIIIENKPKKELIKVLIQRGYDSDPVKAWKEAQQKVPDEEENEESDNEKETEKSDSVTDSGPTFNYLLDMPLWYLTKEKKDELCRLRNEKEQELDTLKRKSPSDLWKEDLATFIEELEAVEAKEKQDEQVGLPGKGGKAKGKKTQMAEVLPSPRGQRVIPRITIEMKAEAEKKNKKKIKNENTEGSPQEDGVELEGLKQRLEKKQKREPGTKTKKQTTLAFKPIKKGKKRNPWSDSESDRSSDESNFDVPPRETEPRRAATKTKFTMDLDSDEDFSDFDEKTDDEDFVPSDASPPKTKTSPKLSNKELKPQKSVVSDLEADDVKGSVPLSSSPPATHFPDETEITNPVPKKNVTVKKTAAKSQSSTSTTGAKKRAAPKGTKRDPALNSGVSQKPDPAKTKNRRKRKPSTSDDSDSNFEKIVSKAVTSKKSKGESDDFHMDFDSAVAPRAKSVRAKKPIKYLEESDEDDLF

B. subtilis (ATCC 6633) = assay: Minimum inhibitory concentration, broth microdilution
Description: (§1) Antibacterial minimum inhibitory concentrations (MICs) were obtained from three independent experiments using broth microdilution methods in 96-well plates according to Clinical and Laboratory Standards Institute guidelines. Cells were culture from singles colonies in MHIIB medium for 24 h at 37° C. in agitation (200 RPM). The cultures were then diluted using the same media to reach an OD600 of 0.1. Then, 50 µL of the diluted cultures were added to the plates holding 50 µL of serially diluted compounds in MHIIB. The plates were incubated at 37° C. for 20 h. The starting inoculum was fixated to 10^5 colony-forming units per ml.

E. coli DNA gyrase [3] = target: T1, E. coli DNA gyrase; assay: SDFQ-based DNA gyrase inhibition assay; assay type: biochemical; conditions: SDFQ-based, three independent experiments; read-out: IC50 against E. coli DNA gyrase
Description: 100 ng of DNA gyrase was used to supercoil the rx pAB1_FL905 in the presence of different concentrations of a gyrase inhibitor. […] The IC50 values were estimated by nonlinear fitting of the following equation: […]
where F is the fluorescence intensity at the x concentration of an min inhibitor. Fmax and Fmin are the maximum and minimum fluorescence of the DNA sample, respectively. P is a slope parameter.

E. coli DNA gyrase [4] = target: T1, E. coli DNA gyrase; assay: Agarose gel-based DNA gyrase inhibition assay; assay type: biochemical
Description: 100 ng of DNA gyrase was used to supercoil the rx pAB1 in the presence of different concentrations of a gyrase inhibitor. […] Samples were analyzed by electrophoresis in 1% w/v agarose gels followed by ethidium bromide staining and photographed under UV light.

[5] = target: human DNA topoisomerase 2α (Homo sapiens (Human), UniProt P11388); assay: Human DNA topoisomerase 2α-mediated DNA cleavage assay; assay type: biochemical; conditions: pBR322
human DNA topoisomerase 2α, sequence (P11388 whole entry): as above

E. coli DNA gyrase [6] = target: T1, E. coli DNA gyrase; assay: biochemical; assay type: biochemical
Mtb DNA gyrase = Mtb DNA gyrase (Mycobacterium tuberculosis (strain ATCC 25618 / H37Rv), UniProt P9WG45+P9WG47); assay: Mtb DNA gyrase inhibition assay (gel-based); assay type: biochemical
Method in brief: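 Supercoiling by 100 ng Mtb gyrase of 400 ng relaxed pAB1 in buffer with 1.75 mM ATP, pH 7.5, across inhibitor concentrations. Reactions ran 15 min at 37° C, stopped with SDS/EDTA. Products resolved on 1% agarose, ethidium bromide-stained; IC50 determined from gels.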

in vitro [7] = conditions: human
J774 = conditions: 200 µM
in vitro [8] = conditions: mouse
MRSA = assay: Minimum inhibitory concentration, broth microdilution; conditions: Staphylococcus aureus, MRSA
Description: as §1

Mtb = Mtb whole cell assay (% inhibition, MIC); assay type: cell-based, Mycobacterium tuberculosis; conditions: for inhibition at 20 µM / MIC: Mycobacterium tuberculosis; for inhibition at 20 µM: Table 5 (same values in Table 6 at 20 µM)
S. aureus (ATCC 14775) = assay: Minimum inhibitory concentration, broth microdilution; conditions: Staphylococcus aureus
[9] = tested on: NCI panel of 60 cancer cell lines; conditions: up to 1 mM; results of NCI DTP; cited from earlier work
M. abscessus = assay: MIC against M. abscessus; assay type: cell-based, Mycobacterium abscessus; conditions: Mycobacteroides abscessus
E. coli (ATCC 25922) = assay: Minimum inhibitory concentration, broth microdilution; conditions: Escherichia coli, ATCC25922, read-out: MIC (µM) Ec, E. coli strain ATCC25922
Description: as §1

[10] = target: E. coli DNA topoisomerase I (Escherichia coli (strain K12), UniProt P06612); assay: E. coli DNA topoisomerase I inhibition; assay type: biochemical; conditions: gallates at 100 µM
E. coli DNA topoisomerase I, sequence (P06612 whole entry, looked up): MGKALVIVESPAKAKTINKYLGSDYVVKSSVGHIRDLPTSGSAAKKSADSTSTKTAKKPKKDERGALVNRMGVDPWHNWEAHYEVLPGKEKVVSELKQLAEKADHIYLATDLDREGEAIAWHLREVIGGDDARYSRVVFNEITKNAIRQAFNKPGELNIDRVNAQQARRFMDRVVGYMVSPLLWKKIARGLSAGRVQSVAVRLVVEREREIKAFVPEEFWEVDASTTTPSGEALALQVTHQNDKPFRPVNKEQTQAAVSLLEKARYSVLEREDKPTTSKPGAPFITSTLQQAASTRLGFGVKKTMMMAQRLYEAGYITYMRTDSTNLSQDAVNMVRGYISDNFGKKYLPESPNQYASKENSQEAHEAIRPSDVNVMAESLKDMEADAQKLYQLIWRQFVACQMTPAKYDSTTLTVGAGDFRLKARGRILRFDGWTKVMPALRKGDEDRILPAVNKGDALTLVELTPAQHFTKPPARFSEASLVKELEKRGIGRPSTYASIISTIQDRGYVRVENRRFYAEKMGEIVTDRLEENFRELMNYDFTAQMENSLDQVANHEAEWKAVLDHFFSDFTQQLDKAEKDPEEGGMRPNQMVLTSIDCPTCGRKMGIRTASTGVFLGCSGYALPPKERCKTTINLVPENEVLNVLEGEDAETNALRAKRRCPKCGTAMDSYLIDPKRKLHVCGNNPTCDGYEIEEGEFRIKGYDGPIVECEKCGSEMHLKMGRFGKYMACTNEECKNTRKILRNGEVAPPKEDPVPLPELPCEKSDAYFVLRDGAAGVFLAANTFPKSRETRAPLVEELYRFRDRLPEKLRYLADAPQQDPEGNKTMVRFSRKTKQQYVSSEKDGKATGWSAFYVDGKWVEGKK

E. coli DNA gyrase [11] = target: T1, E. coli DNA gyrase; assay: E. coli DNA gyrase ATPase assay; assay type: biochemical; conditions: AB-MECA and gallates at 100 µM
Description: E. coli DNA gyrase ATPase assays were performed in 60 µL of 1 ×gyrase ATPase buffer (10 mM Tris.HCl (pH 7.5), 0.2 mM EDTA, 1 mM magnesium chloride, 1 mM DTT, and 2% (w/v) glycerol) containing 50 nM E. coli DNA gyrase, 200 ng rx pAB1, 0.8 mM Phosphoenol pyruvate, 1.2 units of Pyruvate kinase, 1.7 units of lactate dehydrogenase, and 0.4 mM of NADH at 37° C. After the reaction mixtures are incubated on ice for 5 minutes, 2 mM of ATP is added to initiate the reaction. Absorbance at OD340nm is monitored for up to 30 minutes at 37° C. in a spectrophotometer.

[12] = target: human DNA topoisomerase I (Homo sapiens (Human), UniProt P11387); assay: Human DNA topoisomerase I inhibition; assay type: biochemical; conditions: gallates at 100 µM
human DNA topoisomerase I, sequence (P11387 whole entry): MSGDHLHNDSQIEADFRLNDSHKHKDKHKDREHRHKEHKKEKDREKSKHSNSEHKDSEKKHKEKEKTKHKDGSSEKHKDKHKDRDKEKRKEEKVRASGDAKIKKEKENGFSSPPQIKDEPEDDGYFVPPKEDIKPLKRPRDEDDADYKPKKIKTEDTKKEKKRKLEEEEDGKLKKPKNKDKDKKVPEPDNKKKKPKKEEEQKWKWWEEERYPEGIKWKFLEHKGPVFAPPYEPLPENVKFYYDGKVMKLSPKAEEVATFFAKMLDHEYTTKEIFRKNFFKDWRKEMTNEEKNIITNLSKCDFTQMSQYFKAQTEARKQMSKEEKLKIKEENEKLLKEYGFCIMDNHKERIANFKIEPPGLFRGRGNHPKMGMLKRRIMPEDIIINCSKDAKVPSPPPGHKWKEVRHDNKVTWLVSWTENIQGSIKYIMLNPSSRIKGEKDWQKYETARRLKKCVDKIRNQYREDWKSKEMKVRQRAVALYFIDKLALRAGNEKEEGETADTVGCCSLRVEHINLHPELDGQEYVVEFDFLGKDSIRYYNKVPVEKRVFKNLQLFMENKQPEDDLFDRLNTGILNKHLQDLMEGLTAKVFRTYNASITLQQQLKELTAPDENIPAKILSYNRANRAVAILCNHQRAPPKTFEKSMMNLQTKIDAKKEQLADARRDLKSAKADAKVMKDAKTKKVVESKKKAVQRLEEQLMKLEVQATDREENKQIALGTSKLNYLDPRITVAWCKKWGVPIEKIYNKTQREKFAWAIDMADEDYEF

[13] = target: E. coli DNA topoisomerase IV (Escherichia coli (strain K12), UniProt P0AFI2+P20083); assay: E. coli DNA topoisomerase IV relaxation assay (gel-based); assay type: biochemical
E. coli DNA topoisomerase IV, sequence (P0AFI2 whole entry, looked up): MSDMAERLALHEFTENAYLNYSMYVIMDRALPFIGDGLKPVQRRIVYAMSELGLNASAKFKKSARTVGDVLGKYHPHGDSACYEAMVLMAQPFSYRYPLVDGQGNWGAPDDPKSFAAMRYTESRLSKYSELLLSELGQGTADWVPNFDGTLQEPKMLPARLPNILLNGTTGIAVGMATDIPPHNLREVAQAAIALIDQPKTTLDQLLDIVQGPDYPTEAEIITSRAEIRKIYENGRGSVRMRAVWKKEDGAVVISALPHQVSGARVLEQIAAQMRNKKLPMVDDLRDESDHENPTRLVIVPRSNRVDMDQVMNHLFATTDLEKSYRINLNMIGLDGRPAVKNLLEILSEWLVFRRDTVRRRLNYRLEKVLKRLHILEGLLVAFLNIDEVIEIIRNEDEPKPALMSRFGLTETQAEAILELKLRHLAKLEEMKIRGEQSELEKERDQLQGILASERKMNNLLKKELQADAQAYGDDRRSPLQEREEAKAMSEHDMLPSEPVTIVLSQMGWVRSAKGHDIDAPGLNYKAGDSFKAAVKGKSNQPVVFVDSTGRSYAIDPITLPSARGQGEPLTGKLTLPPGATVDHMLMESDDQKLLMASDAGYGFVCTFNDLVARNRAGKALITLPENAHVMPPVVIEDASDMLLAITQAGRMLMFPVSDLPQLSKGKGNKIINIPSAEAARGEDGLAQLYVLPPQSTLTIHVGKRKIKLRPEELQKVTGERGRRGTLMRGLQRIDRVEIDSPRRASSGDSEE
E. coli DNA topoisomerase IV, sequence (P20083 whole entry, looked up): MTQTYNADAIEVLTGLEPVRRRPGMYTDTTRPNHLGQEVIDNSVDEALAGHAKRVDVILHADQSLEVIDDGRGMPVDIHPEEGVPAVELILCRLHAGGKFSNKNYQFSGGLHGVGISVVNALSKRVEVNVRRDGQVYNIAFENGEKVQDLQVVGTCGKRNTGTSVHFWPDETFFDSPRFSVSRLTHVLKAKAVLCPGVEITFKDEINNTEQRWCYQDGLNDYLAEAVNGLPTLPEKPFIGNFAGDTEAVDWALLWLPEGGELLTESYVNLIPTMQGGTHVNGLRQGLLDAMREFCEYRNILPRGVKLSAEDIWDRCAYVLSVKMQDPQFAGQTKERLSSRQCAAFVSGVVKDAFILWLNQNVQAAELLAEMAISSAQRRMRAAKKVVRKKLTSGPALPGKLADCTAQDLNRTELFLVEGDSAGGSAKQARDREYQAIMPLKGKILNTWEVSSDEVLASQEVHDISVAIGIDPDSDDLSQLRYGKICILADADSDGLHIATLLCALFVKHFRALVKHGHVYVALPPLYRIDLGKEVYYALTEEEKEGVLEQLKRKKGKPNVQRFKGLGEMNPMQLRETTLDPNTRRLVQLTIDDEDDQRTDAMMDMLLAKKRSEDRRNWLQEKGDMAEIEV
Description: Relaxation assays by E. coli DNA topoisomerase IV and the ATPase assays were performed. […] Lane 1 is supercoiled plasmid pAB1. […] The supercoiled, fluorescently-labeled plasmid pAB1_FL905 was used.

E. coli DNA gyrase [14] = target: T1, E. coli DNA gyrase; assay: SDFQ HTS primary assay (1536-well, pAB1_FL905); assay type: biochemical; conditions: for inhibition at 5 µM: read-out: inhibition activities against E. coli DNA gyrase
Description: SDFQ HTS primary assay using pAB1_FL905 was performed in 2 µL of (1 xDNA gyrase buffer: 20 mM Tris-Acetate pH 7.9, 50 mM KAc, 10 mM MgCl2, 2 mM DTT, 1 mM ATP, 0.1 mg/mL BSA). […] 3) Spun plate at 800 rpm for 30 seconds.

E. coli DNA gyrase [15] = target: T1, E. coli DNA gyrase; conditions: known inhibitors of the LOPAC library; read-out: inhibition IC50 against E. coli DNA gyrase; cited from earlier work
[16] = IC50 against E. coli DNA gyrase
[17] = Table 5, Mtb gyrase, read-out: IC50 (µM) Mtb
[18] = read-out: Minimum Inhibitory Concentration S.aureus MRSA
[19] = ATCC14775, read-out: MIC (µM) SA
[20] = ATCC14775, read-out: Minimum Inhibitory Concentration S.aureus
[21] = IC50 (µM) EC, Table 5, E. coli gyrase
[22] = Table 10, read-out: IC50 (µM) Mtb gyrase
[23] = ATCC14775, read-out: MIC (µM) Sa
[24] = read-out: IC50 against E. coli DNA gyrase

CC(OC(=O)c1cc(O)c2ccccc2c1O)C(=O)Nc1ccc(C(N)=O)cc1 (centres unmarked) [Compound 40, 1-[(4-carbamoylphenyl)carbamoyl]ethyl 1,4-dihydroxynaphthalene-2-carboxylate]
E. coli DNA gyrase-mediated DNA breaks and nicking (E. coli DNA gyrase [1]): causes DNA gyrase-mediated double stranded DNA breaks and DNA nicking; also recorded: causes gyrase-mediated DNA double-stranded breaks and single-stranded nicks | inhibition of human DNA topoisomerase IIα [2]: does not inhibit | anti Bacillu subtilis activities (B. subtilis (ATCC 6633)): 39 µg/mL | MIC (B. subtilis (ATCC 6633); Bacillus subtilis, ATCC6633, read-out: Minimum Inhibitory Concentration B.subtilis): 100 µM (≈ 39.4 µg/mL) | IC50 (E. coli DNA gyrase [3]): 47.6 ± 3.7 µM | inhibition of E. coli DNA gyrase activities (E. coli DNA gyrase [4]; 200 µM of compounds): completely inhibited | human topoisomerase 2α-mediated DNA nicks and double-stranded breaks [5]: does not cause | IC50 (E. coli DNA gyrase [6]; IC50 (50-200 µM), bin of Table 2): 50 to 200 µM | IC50 (E. coli DNA gyrase [6]; [16]): 50 µM

Cc1c(CCC(=O)O)c(=O)oc2c(C)c3occ(-c4ccc(-c5ccccc5)cc4)c3cc12 [Compound 119]
inhibition of Mtb DNA gyrase activities (Mtb DNA gyrase): potent Mtb gyrase inhibitors | IC50 (Mtb DNA gyrase; [17]): 16 µM | IC50 (in vitro [7]): > 200 µM | cytotoxicity J774 (J774): no cytotoxicity | IC50 (in vitro [8]): > 200 µM | MIC (MRSA; read-out: MIC (µM) MRSA): 0.8 µM (≈ 0.351 µg/mL) | MIC (MRSA; [18]): 0.78 µM (≈ 0.342 µg/mL) | IC50 [2]: 133 µM | activity against Mtb (Mtb): most active | inhibition at 20 µM (Mtb): 70.4% | MIC (S. aureus (ATCC 14775); [19]): 0.8 µM (≈ 0.351 µg/mL) | MIC (S. aureus (ATCC 14775); [20]): 0.78 µM (≈ 0.342 µg/mL) | inhibition of E. coli DNA gyrase activities (E. coli DNA gyrase [4]; 50 µM of compounds): completely inhibited | IC50 (E. coli DNA gyrase [6]; [21]): 7.7 µM

Cc1c(CCC(=O)O)c(=O)oc2c(C)c3occ(-c4ccc5ccccc5c4)c3cc12 [Compound 124]
inhibition of Mtb DNA gyrase activities (Mtb DNA gyrase): potent Mtb gyrase inhibitors | IC50 (Mtb DNA gyrase; [17]): 3 µM | IC50 (in vitro [7]): > 200 µM | cytotoxicity J774 (J774): no cytotoxicity | IC50 (in vitro [8]): > 200 µM | MIC (MRSA; read-out: MIC (µM) MRSA): 1.6 µM (≈ 0.66 µg/mL) | MIC (MRSA; [18]): 1.56 µM (≈ 0.643 µg/mL) | IC50 [2]: 117 µM | activity against Mtb (Mtb): most active | inhibition at 20 µM (Mtb): 80.4% | MIC (S. aureus (ATCC 14775); [19]): 1.6 µM (≈ 0.66 µg/mL) | MIC (S. aureus (ATCC 14775); [20]): 1.56 µM (≈ 0.643 µg/mL) | inhibition of E. coli DNA gyrase activities (E. coli DNA gyrase [4]; 50 µM of compounds): completely inhibited | IC50 (E. coli DNA gyrase [6]; [21]): 5.5 µM

C[n+]1c(-c2ccc(/C=C/C=N/NC(=O)c3ccc(C(=O)N/N=C/c4ccc(-c5cn6ccccc6[n+]5C)cc4)cc3)cc2)cn2ccccc21 [Compound 261]
IC50 (Mtb DNA gyrase; [22]): 9.3 µM | IC50 (in vitro [7]): > 200 µM | cytotoxicity against the NCI panel of 60 cancer cell lines [9]: no cytotoxicity | MIC (M. abscessus): 22.9 µM | MIC (Mtb): 109 µM | MIC (S. aureus (ATCC 14775); [23]): > 200 µM | MIC (E. coli (ATCC 25922)): 50 µM

C[n+]1c(-c2ccc(NC(=O)c3ccc(C(=O)Nc4ccc(-c5cn6ccccc6[n+]5C)cc4)cc3)cc2)cn2ccccc21 [Compound 263]
IC50 (Mtb DNA gyrase; [22]): 7.7 µM | IC50 (in vitro [7]): > 200 µM | cytotoxicity against the NCI panel of 60 cancer cell lines [9]: no cytotoxicity | MIC (M. abscessus): > 200 µM | MIC (Mtb): 11.3 µM | MIC (S. aureus (ATCC 14775); [23]): 0.39 µM

CNC(=O)[C@H]1O[C@@H](n2cnc3c(NCc4cccc(I)c4)ncnc32)[C@H](O)[C@@H]1O [IB-MECA, reference compound]
inhibition of Mtb DNA gyrase activities (Mtb DNA gyrase): did not inhibit | inhibition of E. coli DNA topoisomerase I [10]: did not inhibit | inhibition of human DNA topoisomerase IIα [2]: did not inhibit | inhibition of the ATPase activities of E. coli DNA gyrase (E. coli DNA gyrase [11]): ATP competitive inhibitors; also recorded: inhibition | inhibition of human DNA topoisomerase I [12]: did not inhibit | inhibition of E. coli DNA topoisomerase IV [13]: did not inhibit | IC50 (E. coli DNA gyrase [6]; [24]): 50.7 µM

O=C(O)C1=CC(=C(c2ccc(O)c(C(=O)O)c2)c2ccc(O)c(C(=O)O)c2)C=CC1=O [aurintricarboxylic acid]
inhibition at 5 µM (E. coli DNA gyrase [14]): > 40%

CNC(=O)[C@H]1O[C@@H](n2cnc3c(NCc4cccc(I)c4)nc(Cl)nc32)[C@H](O)[C@@H]1O [chloro-IB-MECA, reference compound]
inhibition of Mtb DNA gyrase activities (Mtb DNA gyrase): did not inhibit | E. coli DNA gyrase-mediated DNA breaks and nicking (E. coli DNA gyrase [1]): did not DNA double stranded DNA breaks | inhibition of E. coli DNA topoisomerase I [10]: did not inhibit | inhibition of human DNA topoisomerase IIα [2]: did not inhibit | inhibition of the ATPase activities of E. coli DNA gyrase (E. coli DNA gyrase [11]): ATP competitive inhibitors; also recorded: inhibition | inhibition of human DNA topoisomerase I [12]: did not inhibit | inhibition of E. coli DNA topoisomerase IV [13]: did not inhibit | IC50 (E. coli DNA gyrase [6]; [16]): 2.4 µM | IC50 (E. coli DNA gyrase [6]; [24]): < 5 µM

CCn1cc(C(=O)O)c(=O)c2ccc(C)nc21 [nalidixic acid]
IC50 (E. coli DNA gyrase [15]): > 30 µM

CC1COc2c(N3CCN(C)CC3)c(F)cc3c(=O)c(C(=O)O)cn1c23 (centres unmarked) [ofloxacin]
inhibition at 5 µM (E. coli DNA gyrase [14]): > 40%

CCn1cc(C(=O)O)c(=O)c2cc3c(cc21)OCO3 [oxolinic acid]
IC50 (E. coli DNA gyrase [15]): > 30 µM

N[C@@H]1[C@H]2CN(c3nc4c(cc3F)c(=O)c(C(=O)O)cn4-c3ccc(F)cc3F)C[C@@H]12 [trovafloxacin]
inhibition activities against E. coli DNA gyrase (E. coli DNA gyrase [14]; LOPAC library, 5 µM): more than 40%
